The source of these data is US11905282B1, “1-cyclopropyl-7-(4-((5-(2,4-dichlorobenzylideneamino)-2-thioxo-1,3,4-thiadiazol-3(2H)-yl)methyl)piperazin-1-yl)-6-fluoro-4-oxo-1,4-dihydroquinoline-3-carboxylic acid as an anti-inflammatory compound” (KING FAISAL UNIVERSITY, priority 2023, dated 2024).

Read-outs that look alike come from different tables or passages of the source.

The experiment has as its target Bovine Serum Albumin (Bos taurus, UniProt P02769). Kind of experiment: Bovine Serum Albumin Assay (BSA), inhibition of heat-induced protein denaturation (in vitro anti-inflammatory activity). In kind it is biochemical. As to the method: Bovine Serum Albumin Assay (BSA) In vitro-inflammatory activities of the tested samples were determined using a modified method of the BSA assay reported by Williams et al. BSA solution (0.4%, w/v) was prepared in Tris Buffered Saline. The pH was adjusted to 6.4 with glacial acetic acid. Different dilutions of 20, 40, 60, 80, and 100 μg/mL of 1-cyclopropyl-6-fluoro-4-oxo-7-(4-((5-oxo-2-phenyl-4-(quinolin-2-ylmethylene)-4,5-dihydro-1H-imidazol-1-yl)methyl)piperazin-1-yl)-1,4-dihydroquinoline-3-carboxylic acid in the stock solutions were added to test tubes containing 1 mL of 0.4%, w/v BSA buffer solution. Both negative (solvent) and positive (aspirin) controls were assayed in a similar manner. The solutions were then heated in a water bath at 72° C. for 10 minutes and cooled for 20 minutes under laboratory conditions. The turbidity of the solutions (level of protein precipitation) was measured at 660 nm in Spectrophotometer (V-770 UV-Visible/NIR Spectrophotometer). The percentage inhibition of precipitation (protein denaturation) was determined relative to the negative control using the following equation: [formula] [formula]

The mark [1] stands for this setting: read-out: percentage inhibition of precipitation (protein denaturation).

Sequence of Bovine Serum Albumin (P02769 25-607): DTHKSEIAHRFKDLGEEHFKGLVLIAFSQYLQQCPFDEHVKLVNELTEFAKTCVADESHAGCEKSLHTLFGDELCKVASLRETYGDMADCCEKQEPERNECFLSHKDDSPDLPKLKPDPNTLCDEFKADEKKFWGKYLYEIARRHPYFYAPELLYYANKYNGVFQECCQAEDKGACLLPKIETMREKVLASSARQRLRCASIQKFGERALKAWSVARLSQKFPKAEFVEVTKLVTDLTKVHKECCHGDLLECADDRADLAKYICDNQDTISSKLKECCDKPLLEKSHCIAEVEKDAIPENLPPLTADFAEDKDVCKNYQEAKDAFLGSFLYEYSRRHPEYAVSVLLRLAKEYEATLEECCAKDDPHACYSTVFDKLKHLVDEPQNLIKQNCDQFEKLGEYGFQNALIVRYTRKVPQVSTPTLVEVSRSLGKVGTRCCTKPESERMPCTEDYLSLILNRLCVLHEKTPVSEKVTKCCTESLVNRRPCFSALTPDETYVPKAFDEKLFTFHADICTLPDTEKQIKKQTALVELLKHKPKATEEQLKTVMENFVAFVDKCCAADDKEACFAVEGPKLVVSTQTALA

On to `CC(=O)Oc1ccccc1C(=O)O` [P.C, aspirin, reference compound], for which, where the note is “concentration 100 μg/ml, 72° C. 10 minutes, turbidity at 660 nm, read-out: percentage inhibition of precipitation (protein denaturation)”, the inhibition at 100 µg/mL was found to be 90.7%.

For `O=C(O)c1cn(C2CC2)c2cc(N3CCN(Cn4nc(/N=C/c5ccc(Cl)cc5Cl)sc4=S)CC3)c(F)cc2c1=O` [Present compound, 1-cyclopropyl-7-(4-((5-(2,4-dichlorobenzylideneamino)-2-thioxo-1,3,4-thiadiazol-3(2H)-yl)methyl)piperazin-1-yl)-6-fluoro-4-oxo-1,4-dihydroquinoline-3-carboxylic acid], the “in vitro anti-inflammatory effect” value (BSA assay, result in words) is recorded as “considerable anti-inflammatory effect”. Besides, under setting [1], the inhibition at 20 µg/mL is 68.2%, the inhibition at 40 µg/mL worked out at 75.7%, the inhibition at 60 µg/mL turned out to be 79.1% and the inhibition at 80 µg/mL amounted to 83.8%. For the same compound, the inhibition at 100 µg/mL under setting [1] was found to be 87.6%.
